Data: patent publication US20180099931A1 (AbbVie S.à.r.l., priority 2016, published 2018)
Where two headings read alike, the source gives them in different places.

Molecular target: T1, F508delCFTR (Homo sapiens, UniProt P13569, DEL508-508)
T1 construct: expressed in transfected cells; host or cells: CFBE41o- human lung-derived epithelial cells (CFBE4lo-F508delCFTR-HRP), doxycycline-inducible
Assay: Cell Surface Expression-Horse Radish Peroxidase (CSE-HRP) Assay;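 on Maximum % activity (with co-corrector): co-corrector and positive control are both the same reference corrector at 2 µM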;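 on Maximum % activity (without co-corrector): percent of the 2 µM on-plate positive control corrector response above DMSO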
Format: cell-based
Conditions: for Maximum % activity (with co-corrector) / Emax: maximum at any tested concentration, normalized to on-plate positive control; for Emax: read-out: Maximum % activity (without co-corrector)
Description: Cell Surface Expression-Horse Radish Peroxidase (CSE-HRP) Assay;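 on Maximum % activity (with co-corrector): co-corrector and positive control are both the same reference corrector at 2 µM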;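 on Maximum % activity (without co-corrector): percent of the 2 µM on-plate positive control corrector response above DMSO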
The development was achieved by expressing the F508delCFTR mutation along with a horseradish peroxidase (HRP) in the fourth exofacial loop, and then measuring the HRP activity using luminescence readout from these cells, CFBE4lo-F508delCFTR-HRP, that were incubated overnight with the test corrector compounds, either without or with the co-corrector. […] The test compounds were then added either without or with a co-corrector at the required concentrations and further incubated for 18-24 hours at 33° C. The highest concentration tested was 20 μM with an 8-point concentration response curve using a 3-fold dilution in both the test compound without or with the co-corrector. Three replicate plates were run to determine one EC50. All plates contained negative controls (dimethyl sulfoxide, DMSO) and positive control (2 μM of 3-[(2R,4R)-4-({[1-(2,2-difluoro-1,3-benzodioxol-5-yl)cyclopropyl]carbonyl}amino)-7-methoxy-3,4-dihydro-2H-chromen-2-yl]benzoic acid) as well as on-plate concentration response of the positive control. […] The raw counts from the experiment were analyzed using Accelrys® Assay Explorer v3.3.
1−[3*SDPositive Control+3*SDNegative Control/Absolute(MeanPositive Control−MeanNegative Control)]
wherein “SD” is standard deviation.
The % activity measured at each of the 8 test concentrations of the test compound added either without or with a co-corrector (2 μM of 3-[(2R,4R)-4-({[1-(2,2-difluoro-1,3-benzodioxol-5-yl)cyclopropyl]carbonyl}amino)-7-methoxy-3,4-dihydro-2H-chromen-2-yl]benzoic acid) was normalized to the on-plate positive control using the following formulae:
% activity(Test compound without co-corrector)=[(test compound without co-corrector response−DMSO response)/(positive control response−DMSO response)]*100
% activity(Test compound with co-corrector)=[(test compound with co-corrector response−DMSO response)/(positive control response−DMSO response)]*100
The maximum % activity achieved for the test compound either without or with a co-corrector at any tested concentration is presented in Table 4 along with the respective EC50's calculated using the following general sigmoidal curve with variable Hill slope equation (described as Model 42 in the Accelrys® Assay Explorer v3.3 software):
General sigmoidal curve with concentration, response, top, bottom, EC50 and Hill slope. This model describes a sigmoidal curve with an adjustable baseline, a. The equation can be used to fit curves where response is either increasing or decreasing with respect to the independent variable, “x”.
“x” is a concentration of drug under test. “y” is the response. “a” is the maximum response, and “d” is the minimum response “c” is the inflection point (EC50) for the curve. That is, “y” is halfway between the lower and upper asymptotes when x=c. “b” is the slope-factor or Hill coefficient. The sign of b is positive when the response increases with increasing dose and is negative when the response decreases with increasing dose (inhibition).

[1] = test compound without co-corrector, read-out: EC50 (without co-corrector)
[2] = with co-corrector (2 μM of 3-[(2R,4R)-4-({[1-(2,2-difluoro-1,3-benzodioxol-5-yl)cyclopropyl]carbonyl}amino)-7-methoxy-3,4-dihydro-2H-chromen-2-yl]benzoic acid), read-out: EC50 (with co-corrector)
[3] = test compound without co-corrector
[4] = with co-corrector (2 μM of 3-[(2R,4R)-4-({[1-(2,2-difluoro-1,3-benzodioxol-5-yl)cyclopropyl]carbonyl}amino)-7-methoxy-3,4-dihydro-2H-chromen-2-yl]benzoic acid)
[5] = CSE-HRP, test compound without co-corrector, read-out: EC50 (without co-corrector)
[6] = CSE-HRP, with co-corrector (2 μM of 3-[(2R,4R)-4-({[1-(2,2-difluoro-1,3-benzodioxol-5-yl)cyclopropyl]carbonyl}amino)-7-methoxy-3,4-dihydro-2H-chromen-2-yl]benzoic acid), read-out: EC50 (with co-corrector)
[7] = CSE-HRP, with co-corrector (2 μM)

T1 sequence (P13569 with tags, fused parts or gaps DEL508-508): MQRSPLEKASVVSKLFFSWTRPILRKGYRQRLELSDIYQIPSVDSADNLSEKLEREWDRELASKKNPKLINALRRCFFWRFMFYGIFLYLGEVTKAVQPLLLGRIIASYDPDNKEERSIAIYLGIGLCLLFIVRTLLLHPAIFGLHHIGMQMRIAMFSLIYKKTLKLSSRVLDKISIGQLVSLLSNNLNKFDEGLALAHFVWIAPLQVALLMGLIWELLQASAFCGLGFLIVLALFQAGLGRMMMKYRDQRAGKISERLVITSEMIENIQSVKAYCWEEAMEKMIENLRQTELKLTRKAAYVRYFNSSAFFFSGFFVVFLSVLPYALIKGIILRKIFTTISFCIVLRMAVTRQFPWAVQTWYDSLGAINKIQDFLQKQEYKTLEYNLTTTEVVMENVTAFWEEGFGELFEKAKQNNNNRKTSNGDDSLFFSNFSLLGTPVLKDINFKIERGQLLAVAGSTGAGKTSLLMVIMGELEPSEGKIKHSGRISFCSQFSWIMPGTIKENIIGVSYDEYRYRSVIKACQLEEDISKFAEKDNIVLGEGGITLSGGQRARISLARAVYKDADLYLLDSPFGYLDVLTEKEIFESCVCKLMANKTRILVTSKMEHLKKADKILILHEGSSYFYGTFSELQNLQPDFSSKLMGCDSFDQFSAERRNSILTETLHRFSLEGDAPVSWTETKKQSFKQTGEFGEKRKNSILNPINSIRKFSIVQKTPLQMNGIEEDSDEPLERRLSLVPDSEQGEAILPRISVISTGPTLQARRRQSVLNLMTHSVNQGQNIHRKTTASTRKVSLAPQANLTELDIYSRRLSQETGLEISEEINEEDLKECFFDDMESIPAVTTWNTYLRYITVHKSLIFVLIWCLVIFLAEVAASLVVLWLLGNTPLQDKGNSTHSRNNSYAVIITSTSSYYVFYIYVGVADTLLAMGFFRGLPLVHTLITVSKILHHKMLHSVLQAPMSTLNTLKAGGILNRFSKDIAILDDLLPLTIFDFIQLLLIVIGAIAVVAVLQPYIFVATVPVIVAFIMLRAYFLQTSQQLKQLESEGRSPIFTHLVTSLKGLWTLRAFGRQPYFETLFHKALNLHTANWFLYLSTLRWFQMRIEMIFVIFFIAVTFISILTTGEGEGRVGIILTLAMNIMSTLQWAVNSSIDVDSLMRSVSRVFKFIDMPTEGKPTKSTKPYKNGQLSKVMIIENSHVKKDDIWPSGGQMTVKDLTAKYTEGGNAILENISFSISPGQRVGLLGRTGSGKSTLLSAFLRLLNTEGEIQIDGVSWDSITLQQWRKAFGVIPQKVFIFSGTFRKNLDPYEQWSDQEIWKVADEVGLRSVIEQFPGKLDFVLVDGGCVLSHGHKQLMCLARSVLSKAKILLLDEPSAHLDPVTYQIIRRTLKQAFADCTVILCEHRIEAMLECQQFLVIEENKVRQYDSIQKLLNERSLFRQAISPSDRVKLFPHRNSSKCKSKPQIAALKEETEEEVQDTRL

SMILES | EC50 [1] | EC50 [2] | Maximum % activity (with co-corrector) (with co-corrector (2 μM)) | Emax (without co-corrector) | Emax [3] | Maximum % activity (with co-corrector) [4] | EC50 [5] | EC50 [6] | Maximum % activity (with co-corrector) [7] | Emax (CSE-HRP, without co-corrector)
COc1ccc(C(F)(F)F)cc1CN[C@H]1[C@H](C(C)(C)C)[C@@H](C(=O)O)N(C(=O)C2CC3CC3C2)[C@H]1c1ccccc1 (some centres unmarked) [Example I-162] | 1000 to 10000 nM | 1000 to 10000 nM | +++ (≥350) | 100 to 200% |  |  |  |  |  | 
COc1ccc(C(F)(F)F)cc1CN[C@H]1[C@H](C(C)(C)C)[C@@H](C(=O)O)N(C(=O)C2C3CCCC32)[C@H]1c1ccccc1 (some centres unmarked) [Example I-161] | 1000 to 10000 nM | 1000 to 10000 nM | +++ (≥350) | > 200% |  |  |  |  |  | 
COc1ccc(C(F)(F)F)cc1CN[C@H]1[C@H](C(C)(C)C)[C@@H](C(=O)O)N(C(=O)C2CCCCC2)[C@H]1c1cccnc1N(C)C [Example I-53] | 1000 to 10000 nM | 1000 to 10000 nM | +++ (≥350) | 100 to 200% |  |  |  |  |  | 
COc1ccc(C(C)(C)C)cc1CN[C@H]1[C@H](C(C)(C)C)[C@@H](C(=O)O)N(C(=O)C2CCCCC2)[C@H]1c1cccnc1N(C)C [Example I-52] | < 1000 nM | < 1000 nM | +++ (≥350) | > 200% |  |  |  |  |  | 
COc1ccc(C(C)(C)C)cc1CN[C@H]1[C@H](C(C)(C)C)[C@@H](C(=O)O)N(C(=O)[C@@H]2CCCO2)[C@H]1c1ccccc1Br [Example I-294] |  |  |  |  |  |  | 1000 to 10000 nM | < 1000 nM | +++ (≥350) | > 200%
COc1ccc(C(C)(C)C)cc1CN[C@H]1[C@H](C(C)(C)C)[C@@H](C(=O)O)N(C(=O)c2ccccc2)[C@H]1c1ccccc1 [Example I-65] | 1000 to 10000 nM | 1000 to 10000 nM | +++ (≥350) | 100 to 200% |  |  |  |  |  | 
COc1ccc(C(C)(C)C)cc1CN[C@H]1[C@H](C(C)(C)C)[C@@H](C(=O)O)N(C(=O)c2ccc(OC3CCCCC3)cc2)[C@H]1c1cccnc1N(C)C [Example I-200] | 1000 to 10000 nM | < 1000 nM | +++ (≥350) | 100 to 200% |  |  |  |  |  | 
COc1ccc(-c2ccccc2F)cc1CN[C@H]1[C@H](C(C)(C)C)[C@@H](C(=O)O)N(C(=O)C2CCCCC2)[C@H]1c1ccccc1 [Example I-126] | < 1000 nM | < 1000 nM | +++ (≥350) | > 200% |  |  |  |  |  | 
COc1ccc(C(C)(C)C)cc1CN[C@H]1[C@H](C(C)(C)C)[C@@H](C(=O)O)N(C(=O)OC(C)C)[C@H]1c1cccnc1N(C)C [Example 66, (2S,3S,4S,5S)-3-tert-butyl-4-{[(5-tert-butyl-2-methoxyphenyl)methyl]amino}-5-[2-(dimethylamino)pyridin-3-yl]-1-{[(propan-2-yl)oxy]carbonyl}pyrrolidine-2-carboxylic acid] | 1000 to 10000 nM | 1000 to 10000 nM | +++ (≥350) | 100 to 200% |  |  |  |  |  | 
COc1ccc(C(C)(C)C)cc1CN[C@H]1[C@H](C(C)(C)C)[C@@H](C(=O)O)N(C(=O)[C@H](C)c2ccccc2)[C@H]1c1cccnc1N(C)C [Example I-233] | 1000 to 10000 nM | 1000 to 10000 nM | +++ (≥350) | 100 to 200% |  |  |  |  |  | 
COc1ccc(C(C)(C)C)cc1CN[C@H]1[C@H](C(C)(C)C)[C@@H](C(=O)O)N(C(=O)[C@@H]2CCCCO2)[C@H]1c1cccnc1N(C)C [Example 18, (2S,3S,4S,5S)-3-tert-butyl-4-{[(5-tert-butyl-2-methoxyphenyl)methyl]amino}-5-[2-(dimethylamino)pyridin-3-yl]-1-[(2S)-oxane-2-carbonyl]pyrrolidine-2-carboxylic acid] | 1000 to 10000 nM | 1000 to 10000 nM | +++ (≥350) | > 200% |  |  |  |  |  | 

Other lines, results leading:

EC50 [1] | EC50 [2] | Maximum % activity (with co-corrector) (with co-corrector (2 μM)) | Emax (without co-corrector) | Emax [3] | Maximum % activity (with co-corrector) [4] | EC50 [5] | EC50 [6] | Maximum % activity (with co-corrector) [7] | Emax (CSE-HRP, without co-corrector) | SMILES
1000 to 10000 nM | 1000 to 10000 nM |  |  | < 100% | ++ (≥150 and <350) |  |  |  |  | COc1nc(C(C)(C)C)ccc1CN[C@H]1[C@H](C(C)(C)C)[C@@H](C(=O)O)N(C(=O)[C@H]2CCCCO2)[C@H]1c1cccnc1N(C)C [II-521]
1000 to 10000 nM | 1000 to 10000 nM | +++ (≥350) |  | 100 to 200% |  |  |  |  |  | COc1ccc(C2(C)CCC2)cc1CN[C@H]1[C@H](C(C)(C)C)[C@@H](C(=O)O)N(C(=O)[C@H]2CCCCO2)[C@H]1c1cccnc1OC [III-234]
1000 to 10000 nM | 1000 to 10000 nM |  |  | > 200% | +++ (≥350) |  |  |  |  | COc1nc(C(C)(C)C)ccc1CN[C@H]1[C@H](C(C)(C)C)[C@@H](C(=O)O)N(C(=O)[C@H]2CCC[C@@H](OC)C2)[C@H]1c1ccccc1 (relative stereo) [II-456]
> 10000 nM | 1000 to 10000 nM | ++ (≥150 and <350) |  | < 100% |  |  |  |  |  | COc1ccc(Cl)cc1CN[C@@H]1[C@@H](C(C)(C)C)[C@H](C(=O)O)N(C(=O)[C@H](OC)c2ccccc2)[C@@H]1c1ccccc1N(C)C [III-99]
 |  |  |  |  |  | 1000 to 10000 nM | < 1000 nM | +++ (≥350) | < 100% | COc1ccc(C(F)(F)F)cc1CN[C@H]1[C@H](C(C)(C)C)[C@@H](C(=O)O)N(C(=O)C2CCc3ccccc3O2)[C@H]1c1ccccc1 (some centres unmarked) [II-163]
 |  |  |  |  |  | 1000 to 10000 nM | 1000 to 10000 nM | +++ (≥350) | > 200% | COc1ccc(C(C)(C)C)cc1CN[C@H]1[C@H](C(C)(C)C)[C@@H](C(=O)O)N(C(=O)C2CCC2)[C@H]1c1ccccc1 [II-313]
 |  |  |  |  |  | 1000 to 10000 nM | 1000 to 10000 nM | ++ (≥150 and <350) | < 100% | CC(C)(C)[C@H]1[C@H](NC2CCOc3ccc(Cl)cc32)[C@H](c2ccccc2)N(C(=O)C2CCCCC2)[C@@H]1C(=O)O (some centres unmarked) [II-167]
1000 to 10000 nM | 1000 to 10000 nM |  |  | < 100% | ++ (≥150 and <350) |  |  |  |  | CO[C@@H](C(=O)N1[C@H](c2ccccc2)[C@H](Nc2cc(C(F)(F)F)cc(C)n2)[C@@H](C(C)(C)C)[C@@H]1C(=O)O)c1ccccc1 [III-75]
1000 to 10000 nM | 1000 to 10000 nM |  |  | < 100% | ++ (≥150 and <350) |  |  |  |  | Cc1cc(C(F)(F)F)cc(N[C@H]2[C@H](C(C)(C)C)[C@@H](C(=O)O)N(C(=O)C3CCCCC3C(F)(F)F)[C@H]2c2cccnc2N(C)C)n1 (some centres unmarked) [II-502]
1000 to 10000 nM | 1000 to 10000 nM |  |  | > 200% | +++ (≥350) |  |  |  |  | COc1ccc(C(F)(F)F)cc1CN[C@H]1[C@H](C(C)(C)C)[C@@H](C(=O)O)N(C(=O)OC(C)C)[C@H]1c1cccnc1N(C)C [II-551]
 |  |  |  |  |  | < 1000 nM | < 1000 nM | +++ (≥350) | > 200% | COc1ccc(C(C)(C)C)cc1CN[C@H]1[C@H](C(C)(C)C)[C@@H](C(=O)O)N(C(=O)Cc2ccccc2C)[C@H]1c1ccccc1 [II-205]
 |  |  |  |  |  | 1000 to 10000 nM | 1000 to 10000 nM | +++ (≥350) | 100 to 200% | COc1ccc(C(C)(C)C)cc1CN[C@H]1[C@H](C(C)(C)C)[C@@H](C(=O)O)N(C(=O)C(OC)C(C)(C)C)[C@H]1c1ccccc1 (some centres unmarked) [II-298]
